# Laboratory results reported in patent US20090156582A1, “Pyrazole Compound” (priority 2005, published 2009).
# Target: T1, recombinant GSK3β enzyme (human GSK3β) (Homo sapiens, UniProt P49841)
# T1 construct: FLAG (N); made in house; host or cells: Sf-21 insect cells, recombinant baculovirus (pFASTBAC1 / BAC-TO-BAC)
# Experiment: Measurement of GSK3β inhibitory activity
# Format: biochemical
# Conditions: glycogen synthase peptide substrate, Kinase Glo luminescence, read-out: IC50 (concentration of test compound needed for 50% inhibition of luminescent intensity), GSK3β inhibitory activity
# In short: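 FLAG-purified human GSK3β expressed in baculovirus-infected Sf-21 cells; reaction with 2.5 μM ATP (stock solution) at room temperature, 30 min. Residual ATP measured by Kinase-Glo luminescence; IC50 as concentration inhibiting 50% of luminescent intensity.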
# T1 sequence (P49841 whole entry): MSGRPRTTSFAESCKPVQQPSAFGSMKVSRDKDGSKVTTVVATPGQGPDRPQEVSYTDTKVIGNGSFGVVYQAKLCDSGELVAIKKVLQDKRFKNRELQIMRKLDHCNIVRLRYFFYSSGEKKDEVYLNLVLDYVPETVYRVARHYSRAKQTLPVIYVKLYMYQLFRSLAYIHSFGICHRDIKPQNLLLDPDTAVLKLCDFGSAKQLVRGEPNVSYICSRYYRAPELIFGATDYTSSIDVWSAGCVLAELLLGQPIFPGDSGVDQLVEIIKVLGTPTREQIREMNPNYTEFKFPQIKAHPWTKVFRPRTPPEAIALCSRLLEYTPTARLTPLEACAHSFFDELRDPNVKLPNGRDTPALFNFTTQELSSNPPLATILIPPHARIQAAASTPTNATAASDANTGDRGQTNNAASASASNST
row,SMILES,IC50 [nM]
1,"CC(=O)Nc1cccc(C(=O)Nc2c[nH]nc2C(=O)NCCOC(C)(C)C)c1 [Example 381, 4-((3-(acetylamino)benzoyl)amino)-N-(2-tert-butoxyethyl)-1H-pyrazole-3-carboxamide]",140
2,"O=C(CCc1ccccc1)Nc1c[nH]nc1C(=O)NCc1ccco1 [Example 149, N-(2-furylmethyl)-4-[(3-phenylpropanoyl)amino]-1H-pyrazole-3-carboxamide]",334
3,COc1ccc(C(=O)Nc2c[nH]nc2C(=O)NC(C)C)cc1 [compound 030],< 100
4,"O=C(CCc1ccccc1)Nc1c[nH]nc1C(=O)NCCc1ccccc1 [Example 128, N-(2-phenylethyl)-4-[(3-phenylpropanoyl)amino]-1H-pyrazole-3-carboxamide]",< 100
5,"O=C(Nc1c[nH]nc1C(=O)NCc1ccccc1)c1ccc(OC(F)(F)F)cc1 [Example 117, N-benzyl-4-{[4-(trifluoromethoxy)benzoyl]-amino}-1H-pyrazole-3-carboxamide]",157
6,"O=C(/C=C/c1ccccc1)Nc1c[nH]nc1C(=O)NCc1ccccc1 [Example 105, N-benzyl-4-{[(2E)-3-phenylprop-2-enoyl]amino}-1H-pyrazole-3-carboxamide]",273
7,CC(C)NC(=O)c1n[nH]cc1NC(=O)c1ccc(F)cc1F [compound 031],< 100
8,CC(=O)Nc1cccc(C(=O)Nc2c[nH]nc2C(=O)NC2CCCC2)c1 [compound 075],< 100
9,"CC(=O)Nc1cccc(C(=O)Nc2c[nH]nc2C(=O)NCCN(C)C)c1 [Example 373, 4-((3-(acetylamino)benzoyl)amino)-N-(2-(dimethylamino)ethyl)-1H-pyrazole-3-carboxamide]",< 100
10,CC(C)NC(=O)c1n[nH]cc1NC(=O)c1ccc(-c2ccccc2)cc1 [compound 028],< 100
11,"N#CCCNC(=O)c1n[nH]cc1NC(=O)c1ccco1 [Example 412, N-(2-cyanoethyl)-4-(2-furoylamino)-1H-pyrazole-3-carboxamide]",< 100
12,"O=C(Nc1c[nH]nc1C(=O)NCCO)c1ccccn1 [Example 401, N-(3-(((2-hydroxyethyl)amino)carbonyl)-1H-pyrazol-4-yl)pyridine-2-carboxamide]",< 100
13,"O=C(Nc1c[nH]nc1C(=O)NC1CCCC1)c1cccc2c1OCC2 [Example 362, N-cyclopentyl-4-((2,3-dihydro-1-benzofuran-7-ylcarbonyl)amino)-1H-pyrazole-3-carboxamide]",< 100
14,CC(C)NC(=O)c1n[nH]cc1NC(=O)c1ccccc1 [compound 027],< 100
15,"CC(=O)Nc1cccc(C(=O)Nc2c[nH]nc2C(=O)NCCOc2ccccc2)c1 [Example 369, 4-((3-(acetylamino)benzoyl)amino)-N-(2-phenoxyethyl)-1H-pyrazole-3-carboxamide]",< 100

# The next lines start with the values.
row,IC50 [nM],SMILES
1,< 100,"Cc1cccc(C(=O)Nc2c[nH]nc2C(=O)NCCOC(C)C)n1 [Example 426, N-(3-(((2-isopropoxyethyl)amino)carbonyl)-1H-pyrazol-4-yl)-6-methylpyridine-2-carboxamide]"
2,< 100,"N#CCCNC(=O)c1n[nH]cc1NC(=O)c1cccs1 [Example 416, N-(2-cyanoethyl)-4-(2-thienylcarbonylamino)-1H-pyrazole-3-carboxamide]"
3,< 100,"N#CCCNC(=O)c1n[nH]cc1NC(=O)c1ccccc1 [Example 420, 4-(benzoylamino)-N-(2-cyanoethyl)-1H-pyrazole-3-carboxamide]"
4,< 100,"Cc1cccc(C(=O)Nc2c[nH]nc2C(=O)NCCC#N)n1 [Example 387, N-(3-(((2-cyanoethyl)amino)carbonyl)-1H-pyrazol-4-yl)-6-methylpyridine-2-carboxamide]"
5,< 100,"COCCNC(=O)c1n[nH]cc1NC(=O)c1ccccn1 [Example 356, N-(3-(((2-methoxyethyl)amino)carbonyl)-1H-pyrazol-4-yl)pyridine-2-carboxamide]"
6,< 100,"O=C(Nc1c[nH]nc1C(=O)NCC(F)(F)F)c1ccccc1 [Example 422, 4-(benzoylamino)-N-(2,2,2-trifluoroethyl)-1H-pyrazole-3-carboxamide]"
7,< 100,"N#CCCNC(=O)c1n[nH]cc1NC(=O)c1ccccn1 [Example 358, N-(3-(((2-cyanoethyl)amino)carbonyl)-1H-pyrazol-4-yl)pyridine-2-carboxamide]"
8,< 100,COc1ccccc1CC(=O)Nc1c[nH]nc1C(=O)NC1CCCC1 [compound 068]
9,< 100,"COc1ccc(C(=O)Nc2c[nH]nc2C(=O)NCCc2ccccc2)cc1 [Example 133, 4-[(4-methoxybenoyl)amino]-N-(2-phenylethyl)-1H-pyrazole-3-carboxamide]"
10,< 100,"Cc1cccc(C(=O)Nc2c[nH]nc2C(=O)NCCC#N)c1 [Example 413, N-(2-cyanoethyl)-4-(3-methylbenzoylamino)-1H-pyrazole-3-carboxamide]"
11,< 100,CC(C)NC(=O)c1n[nH]cc1NC(=O)C(c1ccccc1)c1ccccc1 [compound 019]

# System: nerve cell prepared from cerebral cortex of fetus of SD rat
# Experiment: Measurement of nerve cell death suppressive activity
# Format: cell-based
# Conditions: rat cerebral cortex nerve cells, LY294002 50 μM final concentration, 24 hr, viable cell number by Cell Titer Glo; read-out: IC50 value (concentration of the test compound needed for 50% inhibition of nerve cell death)
# Protocol: The cerebral cortex was taken from fetus of TP-14 pregnant SD rat (CLEA Japan, Inc.), and nerve cell was prepared using nerve cell culture system (SUMITOMO BAKELITE). The cerebral cortex was placed in enzymatic solution of cell dispersion solution kit (SUMITOMO BAKELITE), and incubated at 37° C. for 30 min. The cells were suspended by pipetting, and collected by centrifugation at 1000 rpm for 5 min. The supernatant was removed, and cell dispersion solution (SUMITOMO BAKELITE) was added. The cells were suspended by pipetting. The cell suspension was placed on removing solution (SUMITOMO BAKELITE), and the cells were collected by centrifugation at 1000 rpm for 5 min. The supernatant was removed, and the cells were suspended in nerve cell culture medium (SUMITOMO BAKELITE). 100 μl of the suspension was seeded on a poly D lysine•laminin 96 well plate (Becton, Dickinson and Company) at 1×10^5 cells/well. Then, the plate was cultured in a carbon dioxide gas incubator at 37° C. for 4 days. A test compound (50 μl) was added on the 96 well plate, and 50 μL/well of LY294002 was added at 50 μM of the final concentration. Then, the plate was cultured in a carbon dioxide gas incubator for 24 hr. The medium (100 μl) was sampled, and 100 μl of Cell Titer Glo solution (Promega) was added to count the viable cell number. […]
row,SMILES,IC50 [nM]
1,"O=C(Nc1c[nH]nc1C(=O)Nc1ccccc1)c1cnccn1 [Example 98, N-{3-[(phenylamino)carbonyl]-1H-pyrazol-4-yl}pyrazine-2-carboxamide]",440
2,"O=C(Nc1c[nH]nc1C(=O)NC1CCCC1)c1cnccn1 [Example 79, N-{3-[(cyclopentylamino)carbonyl]-1H-pyrazol-4-yl}pyrazine-2-carboxamide]",70

# System: H4IIE-C3 cells
# Experiment: Measurement of sugar release suppressive action using cultured hepatocyte
# Format: cell-based
# Conditions: Rattus norvegicus, H4IIEC3, 3 h, test compound 10 μM, Dexamethasone 500 nM and 8CPT-cAMP 0.1 mM, GSK3β inhibitor free group is 100%, read-out: sugar release suppressive activity (released glucose content, relative value)
# Protocol: H4IIE-C3 cells (from rat liver) were seeded on 24 well or 96 well collagen coated plate (manufactured by Falcon), and cultured in Dulbecco's Modified Eagle Medium (DMEM: manufactured by GIBCO) containing 10% FBS, 25 mM Glucose until the cells became sub-confluent. Then, the cells were starvation treated with DMEM containing 0% FBS and 5.6 mM glucose. The medium was exchanged to DMEM containing test compound adjusted to 10 μM and sugar production stimulant (Dexamethasone (500 nM), 8CPT-cAMP (0.1 mM)), and the cells were pretreated for 5 hr. After washing with PBS, the cells were cultured in Phenol Red-free, Glucose-free DMEM containing the test compound and sugar production stimulant for 3 hr, and the glucose content released in the medium was measured. A glucose measurement kit (A-22189) manufactured by Molecular Probes was used for the glucose measurement. The sugar release suppressive activity is shown in a relative value when the released glucose content of a GSK3β inhibitor free group is 100%.
row,SMILES,activity at 10 µM [%]
1,"Cc1cccc(C(=O)Nc2c[nH]nc2C(=O)NCCOC(C)C)n1 [Example 426, N-(3-(((2-isopropoxyethyl)amino)carbonyl)-1H-pyrazol-4-yl)-6-methylpyridine-2-carboxamide]",55
2,"CC(C)(C)OCCCNC(=O)c1n[nH]cc1NC(=O)c1ccccn1 [Example 455, N-(3-(((3-tert-butoxypropyl)amino)carbonyl)-1H-pyrazol-4-yl)pyridine-2-carboxamide]",79
3,"N#CCCNC(=O)c1n[nH]cc1NC(=O)c1cccs1 [Example 416, N-(2-cyanoethyl)-4-(2-thienylcarbonylamino)-1H-pyrazole-3-carboxamide]",62
4,"Cc1ccc(C(=O)Nc2c[nH]nc2C(=O)NCC(F)(F)F)cn1 [Example 480, 6-methyl-N-(3-(((2,2,2-trifluoroethyl)amino)carbonyl)-1H-pyrazol-4-yl)pyridine-3-carboxamide]",69
5,"N#CCCNC(=O)c1n[nH]cc1NC(=O)c1ccccc1 [Example 420, 4-(benzoylamino)-N-(2-cyanoethyl)-1H-pyrazole-3-carboxamide]",62
6,"CC(C)(CO)CNC(=O)c1n[nH]cc1NC(=O)c1ccccn1 [Example 470, N-(3-(((3-hydroxy-2,2-dimethylpropyl)amino)carbonyl)-1H-pyrazol-4-yl)pyridine-2-carboxamide]",75
7,"Cc1cccc(C(=O)Nc2c[nH]nc2C(=O)NCCC#N)n1 [Example 387, N-(3-(((2-cyanoethyl)amino)carbonyl)-1H-pyrazol-4-yl)-6-methylpyridine-2-carboxamide]",69
8,"Cc1cccc(C(=O)Nc2c[nH]nc2C(=O)NCCC#N)c1 [Example 413, N-(2-cyanoethyl)-4-(3-methylbenzoylamino)-1H-pyrazole-3-carboxamide]",64
9,"N#CCCNC(=O)c1n[nH]cc1NC(=O)c1ccco1 [Example 412, N-(2-cyanoethyl)-4-(2-furoylamino)-1H-pyrazole-3-carboxamide]",74
10,"Cc1cccc(C(=O)Nc2c[nH]nc2C(=O)NCCCOC(C)C)n1 [Example 430, N-(3-(((3-isopropoxypropyl)amino)carbonyl)-1H-pyrazol-4-yl)-6-methylpyridine-2-carboxamide]",76
